Laboratory results from BindingDB's records for patent US20240383893 (Haihe Biopharma, 2024).

Biological target: T1, Ectonucleotide pyrophosphatase/phosphodiesterase family member 1 (Homo sapiens, UniProt P22413)
T1 sequence (P22413 whole entry): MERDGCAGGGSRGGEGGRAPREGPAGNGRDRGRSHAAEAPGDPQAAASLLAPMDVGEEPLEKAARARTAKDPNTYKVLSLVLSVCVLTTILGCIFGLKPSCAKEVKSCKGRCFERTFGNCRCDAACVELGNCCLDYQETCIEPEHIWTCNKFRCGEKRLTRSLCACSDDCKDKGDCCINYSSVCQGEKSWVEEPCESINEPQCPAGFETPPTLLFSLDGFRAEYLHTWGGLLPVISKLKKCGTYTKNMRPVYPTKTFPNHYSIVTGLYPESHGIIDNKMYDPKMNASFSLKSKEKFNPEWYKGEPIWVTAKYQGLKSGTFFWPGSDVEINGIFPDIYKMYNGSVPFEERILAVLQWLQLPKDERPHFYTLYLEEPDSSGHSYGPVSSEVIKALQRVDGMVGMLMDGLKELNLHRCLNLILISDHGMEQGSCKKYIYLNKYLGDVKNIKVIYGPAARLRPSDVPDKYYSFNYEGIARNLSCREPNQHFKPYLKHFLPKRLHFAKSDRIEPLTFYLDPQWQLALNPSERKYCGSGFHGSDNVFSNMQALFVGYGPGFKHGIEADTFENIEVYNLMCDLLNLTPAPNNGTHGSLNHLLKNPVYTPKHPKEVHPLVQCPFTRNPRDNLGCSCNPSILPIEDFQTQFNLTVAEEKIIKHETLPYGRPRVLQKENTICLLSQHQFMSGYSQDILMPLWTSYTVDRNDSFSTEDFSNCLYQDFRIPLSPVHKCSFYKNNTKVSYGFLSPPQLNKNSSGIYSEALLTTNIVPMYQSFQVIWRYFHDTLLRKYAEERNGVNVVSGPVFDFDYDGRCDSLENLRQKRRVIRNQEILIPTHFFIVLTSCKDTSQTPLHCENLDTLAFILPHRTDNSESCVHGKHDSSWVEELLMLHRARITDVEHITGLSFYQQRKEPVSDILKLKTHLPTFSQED
Test: ENPP1 Inhibitory Activity Assay

Row | IC50 [nM] | Compound
1 | 6.9 | COc1ccc2c(Oc3ccc(C(C(=O)NO)C(C)C)cc3)ccnc2n1 (configuration not stated) [US20240383893, Compound 130]
2 | 23 | COc1ccc2c(Oc3ccc(C(C)(C(=O)NO)C(C)C)cc3)ccnc2n1 (configuration not stated) [US20240383893, Compound 165]
